Like-named read-outs stand apart in the source and are kept apart here.

One data set has as its system mouse Tc17 cells. Put plainly: Mouse Th17/Tc17 differentiation dose-response (flow cytometry). It counts as cell-based. To be noted: for EC50: Mus musculus. Background: Flow cytometry measures light scatter and fluorescence of single cells or particles in a stream.
Another data set concerns EL4 cells. The data set is described as follows: Direct toxicity on tumor cells (apoptosis, CCK-8). In kind it is cell-based. Particulars: even at higher concentrations of 8-074. On the procedure:
To exclude the direct cytotoxic killing effect of 8-074 on tumor cells, we conducted an apoptosis assay, a cell proliferation assay, and a cytotoxic toxicity assay on tumor cells upon 8-074 treatment.
Supplementary file 13046_2022_2289_MOESM2_ESM.pdf: Additional file 2: Fig. S2. Selectivity of RORγt agonists in vitro. (a) The activity of 8-074 in Gal4 reporter gene assays with RORα and RORβ. (RORα EC50 > 10 μM, RORβ EC50 > 10 μM). (b) Summary of bioactivity and selectivity profiles for 8-074 using multiple assays. (c) 8-074 treated Type 17 T cells secreted more Th17 signature cytokines. IL-17F and IL-22 levels secreted by Type 17 T cells during differentiation were assayed by ELISA (*P < 0.05, **P < 0.01). (d) CCK-8 assay was used to determine the cell viability of EL4 cells after treating them with different 8-074 concentrations. Representative data are shown from three independent experiments. […] Lymphoma EL4 cells were treated with various concentrations of 8-074 for 48 hours and analyzed by flow cytometry after Annexin V-FITC/PI staining. […] (h) The relative mRNA expression of Cd19 in B cells as determined by qPCR. […] (i) Relative mRNA expression of Il-1β levels in macrophages as determined by qPCR. ***P < 0.001. (j) Relative mRNA expression of Il-6 in macrophages as determined by qPCR. *P < 0.05. (k) Relative mRNA expression of Il-10 in macrophages as determined by qPCR. *P < 0.05. […]

The next data set relates to B cells. Put plainly: B cell activation markers by qPCR. In kind it is cell-based. To be noted: compared with the vehicle. On the procedure: The intracellular cytokines by TILs or in vitro differentiated T helper cells were quantified after restimulation with PMA plus ionomycin in the presence of GolgiStop for 6 h. The total RNA was isolated using the improved TRizol-based (Sigma, Darmstadt, Germany) method for qPCR analysis, and the mRNA expression was analyzed using a StepOnePlus (Life Technologies, Carlsbad, USA) real-time PCR instrument using housekeeping gene β-actin and Gapdh internal standards. qPCR was performed using A Power SYBR Green PCR Master Mix (Accurate Biology, Hunan, China) and two-cycle amplification for 40 cycles followed by the melting curve. The sequence of primers is listed in the Additional file 6: Table S1. In addition, the cytokines were quantified in cell-free culture supernatants using enzymelinked immunosorbent assay (ELISA) kit (the optical density (OD) value was measured at 450 nm, using 570 nm or 630 nm as the reference wavelengths, Multisciences, Hangzhou, China). The kit was used according to the manufacturer’s instructions.
To confirm the in vitro specificity of 8-074, splenocytes from C57BL/6 wild-type mice were activated by plate-bound anti-CD3 and anti-CD28 antibodies and polarized with anti-IL-4 and IL-12 to obtain Th1 cells. IFN-γ, a signature cytokine of Th1 cells, was not affected by LYC-55716 or 8-074 compared with vehicle alone (Fig. 2j, Fig. S2g).

The nature of data set [1]: Drug toxicity evaluation by histopathology (H&E staining). It counts as in vivo, mice. To be noted: 50 mg/kg or 100 mg/kg i.p. daily for two weeks. On the procedure: We further explored the in vivo efficacy of 8-074. First, we conducted a drug toxicity evaluation by histopathology using H&E staining. […] Given the in vivo toxicity and body weight loss during dose escalation, we determined 50 mg/kg for use in the in vivo mechanistic study. The anti-tumor effect of 8-074 was also tested in two other murine syngeneic tumor models (B16F10 and MC38, which are models of melanoma and colon adenocarcinoma, respectively).
Supplementary file 13046_2022_2289_MOESM3_ESM.pdf: Additional file 3: Fig. S3. Selectivity and safety analysis of 8-074. (a) Representative hematoxylin and eosin (H&E) staining micrograph (200 ×) of heart, liver, lung, kidney, spleen, and intestine sections from mice receiving vehicle, 50 mg/kg, or 100 mg/kg 8-074 for two weeks. Scale bar = 100 μm. Vehicle, daily administration of 50 μL DMSO by intraperitoneal injection; 50 mg/kg and 100 mg/kg, daily administration of the corresponding dose (volume less than or equal to 50 μL) by intraperitoneal injection. The cell morphology, number, and distribution in heart, liver, lung, kidney, spleen, and intestine tissues after 8-074 injection were not different from those in the vehicle group. (b and c) Effects of 8-074 on body weight in mice. Data represents the mean ± SD from biological quadruplicates. All error bars represent mean ± SD. Data are from three independent experiments.

Data set [2] deals with OVA-pulsed EL-4 lymphoma cells. The data set is described as follows: Ex vivo cytotoxicity assay of Tc17 cells. It counts as cell-based, mouse. Particulars: Tc17 cells differentiated from OT-I T cells with 8-074. Here is the method:
The EL4 cells were pulsed using 50 ng/ml OVA257-264 peptide (SIINFEKL) (Sangon Biotech, Shanghai, China) for 2 h at 37 °C and then labeled with 0.25 μM or 2.5 μM of CFSE (carboxyfluorescein succinimidyl ester; Thermo Fisher Scientific, Massachusetts, America) for 10 min at 37 °C. CFSE^l°^w (SIINFEKL loaded target) and CFSE^high (irrelevant peptide control) EL4 cells were mixed at a 1:1 ratio and then co-cultured with Tc17 cells differentiated from OT-I T cells challenged (or not) with 8-074 at 30:1, 10:1, 3:1, and 1:1 effector to target cell ratios (E: T). The frequencies of the CFSE^l°^w and CFSE^high EL4 cells in the CFSE positive fraction were determined using flow cytometric analysis 18 h after incubation, and the percent of the specific killing was calculated. Specific killing (%) = [1 − (Sample ratio) / (Negative control ratio)] × 100; Sample ratio = [CFSE^l°^w(target)/CFSE^high(irrelevant)] value of each sample co-cultured with Tc17 cells; Negative control ratio = [CFSE^l°^w(target) / CFSE^high (irrelevant)] value of EL4 cells not cultured with Tc17 cells.

[3] abbreviates: fit of dose-response curve Fig. 1i.

For `CCS(=O)(=O)c1ccc(CC(=O)Nc2ccc(-c3ccc(CC(C)C)c(C#N)c3)c(C(F)(F)F)c2)cc1` [8-074], in the data set on mouse Tc17 cells (8-074 0.001 to 320 nM, Th17% by flow cytometry, read-out: EC50, stimulation of mouse Tc17 cells), the EC50 was 0.0112 µM. For the same molecule, the EC50 in the data set on mouse Tc17 cells (Fig. S2b summary, read-out: mTh17) came out at 0.0112 µM. In the data set on mouse Tc17 cells (setting [3]), this molecule showed a HillSlope of 1.006 and a Span of 111.9. Also, in the data set with EL4 cells, the “apoptosis in the tumor EL4 cells” value is listed as “not observed” and the “cytotoxicity on tumor cells” value was “not observed”. Also, the “gene expression of activated B cell markers Cd19 and Cd86” value with B cells is “no significant change”. In data set [1], the “histopathology, H&E staining of organs” value is recorded as “No noteworthy necrosis or other abnormality was observed”. Also, in data set [2], the “cytotoxic killing activity of treated Tc17 cells” value is “significant increase”.

For the origin of these results see publication PMC9034499, “RORγt agonist enhances anti-PD-1 therapy by promoting monocyte-derived dendritic cells through CXCL10 in cancers” (Journal of Experimental & Clinical Cancer Research : CR, 2022).
